Paper PMC11843585, “A drug-resistant β-lactamase variant changes the conformation of its active-site proton shuttle to alter substrate specificity and inhibitor potency” (The Journal of Biological Chemistry, 2025)
“And” between values parts separate entries of the source, which are not always exact repeats. Equal entries are not always repeated. “Also recorded” adds a separate entry of the source.

Key:
[1] = test system: TEM-1 S130G β-lactamase; set-up: method as in PMID 15981999; conditions: cited from earlier work
[2] = biological target: T1, CTX-M-14 S130A β-lactamase (Escherichia coli, UniProt Q9L5C7, S133A); assay: Steady-state kinetics of β-lactam hydrolysis, S130A enzyme; type: biochemical; conditions: for Km / kcat: S130A; for fold decrease in kcat / fold increase in Km: S130A compared with WT
T1 construct: His6 (TEV-cleavable) (N, cleaved yes); made in house; host or cells: E. coli BL21(DE3)
Method: (§1) Michaelis–Menten steady-state kinetic parameters of CTX-M-14 β-lactamases were determined on various β-lactam substrates. Wavelength and extinction coefficients used for detection were as follows: ampicillin, 235 nm, Δε = 900 M^−1 cm^−1; cephalothin, 262 nm, Δε = 7,660 M^−1 cm^−1; cefotaxime, 264 nm, Δε = 7,250 M^−1 cm^−1; nitrocefin, 482 nm, Δε = 15,000 M^−1 cm^−1; cefpodoxime, 235 nm, Δε = 1,023 M^−1 cm^−1; ceftriaxone, 241 nm, Δε = 2,046 M^−1 cm^−1. Enzymatic reactions were performed at 25 °C in buffer containing 50 mM sodium phosphate (pH 7.0) and 1 μg/ml BSA. Substrate hydrolysis was monitored by Beckman Coulter spectrophotometer model DU 800 (Beckman Coulter, Brea, CA, USA). Initial hydrolysis velocities of substrate were plotted as a function of concentrations and fitted into a Michaelis–Menten equation using GraphPad Prism 5 (GraphPad Software, San Diego, CA, USA) to obtain Km and kcat values. The kcat/Km values for the enzymes where kcat and Km could not be determined independently were estimated using the equation, ν = (kcat/Km)[E][S], where [S] ≪ Km ([54]).

[3] = biological target: T2, CTX-M-14 K234R β-lactamase (Escherichia coli, UniProt Q9L5C7, K237R); assay: Steady-state kinetics of β-lactam hydrolysis, K234R enzyme; type: biochemical; conditions: for Km / kcat: 25 °C, pH 7.0
T2 construct: His6 (TEV-cleavable) (N, cleaved yes); made in house; host or cells: E. coli BL21(DE3), pET28a-CTX-M-14 with K234R
Method: as §1

[4] = biological target: T3, CTX-M-14 S130A/K234R β-lactamase (Escherichia coli, UniProt Q9L5C7, K237R/S133A); assay: Steady-state kinetics of β-lactam hydrolysis, S130A/K234R enzyme; type: biochemical
T3 construct: His6 (TEV-cleavable) (N, cleaved yes); made in house; host or cells: E. coli BL21(DE3)
Method: as §1

[5] = biological target: T4, WT CTX-M-14 β-lactamase (Escherichia coli, UniProt Q9L5C7); assay: Single-turnover stopped-flow kinetics, WT enzyme; type: biochemical
T4 construct: His6 (TEV-cleavable) (N, cleaved yes); made in house; host or cells: E. coli BL21(DE3), plasmid pET28a-CTX-M-14
Method: (§2) Single-turnover kinetics experiments were used to determine the acylation rate for the CTX-M-14 WT and K234R enzymes. Kinetic measurements were carried out at 25 °C using a using a KinTek stopped-flow instrument. Protein concentrations used in this experiment exceed the substrate concentrations. To prepare sample injection, 1 ml of increasing concentrations of CTX-M-14 proteins and 1 ml of 2.5–5 μM cefotaxime were loaded into two separate drive syringes. 5 μM cefotaxime was used for single-turnover experiments with WT CTX-M-14, whereas 2.5 μM cefotaxime was used in experiments with the K234R enzyme. Data collection times were adjusted empirically. Absorbance at 264 nm was monitored after samples in two syringes were mixed. For each selected time period, 1,000 data points were collected, and at least three kinetic traces were obtained to ensure high-quality data. Kinetic data with various protein concentrations were fitted to a single-exponential function, At=A^(−kt)+C , to determine kobs, which was then used to determine k2 by fitting kobs as a function of enzyme concentration to a hyperbola, as has been reported previously for serine β-lactamases and serine proteases ([33], [34], [35]). The deacylation rate constant, k3, was calculated from the experimental values determined for kcat and k2, using the equation, kcat = k2 × k3/(k2 + k3). Solving the equation for kcat in terms of k3 gives k3 = (k2 × kcat)/(kcat − k2). The error in the calculated value of k3 was determined by propagating the errors in k2 and kcat through the equation by adding the absolute errors for the sum (difference) in the denominator to obtain the absolute and the percentage error in kcat − k2. The percentage error of the numerator, (kcat × k2), was calculated by adding the percentage error for kcat and k2, and the final percentage and absolute errors on k3 were then obtained by adding the percentage error of the numerator and denominator to yield the percentage error in k3.

[6] = biological target: T2, CTX-M-14 K234R β-lactamase; assay: Single-turnover stopped-flow kinetics, K234R enzyme; type: biochemical
Method: as §2, with “Kinetic data with various protein concentrations were fitted to a single-exponential function, At=A^(−kt)+C , to determine kobs, which was then used to determine k2 by fitting kobs as a function of enzyme concentration to a hyperbola, as has been reported previously for serine β-lactamases and serine proteases ([33], [34], [35]).” left out, “Solving the equation for kcat in terms of k3 gives k3 = (k2 × kcat)/(kcat − k2).” left out, “The percentage error of the numerator, (kcat × k2), was calculated by adding the percentage error for kcat and k2, and the final percentage and absolute errors on k3 were then obtained by adding the percentage error of the numerator and denominator to yield the percentage error in k3.” left out

[7] = test system: CTX-M β-lactamases; conditions: CTX-M versus TEM-1; cited from earlier work
[8] = test system: PSE-4 β-lactamase; set-up: method as in PMID 11148033, PMID 9756758; conditions: WT PSE-4; cited from earlier work
[9] = biological target: T1, CTX-M-14 S130A β-lactamase; assay: Clavulanic acid inhibition (Ki, Morrison fit), S130A enzyme; type: biochemical; conditions: ampicillin as indicator substrate, 20 min preincubation
Method: (§3) The Ki values for clavulanic acid inhibition of CTX-M-14 WT and variants were determined by mixing the enzymes with increasing concentrations of clavulanic acid in buffer containing 50 mM sodium phosphate (pH 7.0) and 1 μg/ml BSA and incubating at room temperature for 20 min. Enzyme activity was evaluated by monitoring the initial velocity of hydrolysis of 100 μM ampicillin using Beckman Coulter spectrophotometer model DU 800. The percentage activity was calculated by dividing the initial hydrolysis velocity for ampicillin in the presence of clavulanic acid by the velocity in the absence of clavulanic acid and plotted as a function of clavulanic acid concentration. The Ki values were obtained by fitting the data into Morrison equation using GraphPad Prism 5 ([55]).

[10] = biological target: T3, CTX-M-14 S130A/K234R β-lactamase; assay: Clavulanic acid inhibition (Ki, Morrison fit), S130A/K234R enzyme; type: biochemical
Method: as §3

[11] = biological target: T4, WT CTX-M-14 β-lactamase; assay: Clavulanic acid inhibition (Ki, Morrison fit), WT enzyme; type: biochemical; conditions: ampicillin (100 μM) as indicator substrate, 20 min preincubation
Method: as §3

[12] = biological target: T2, CTX-M-14 K234R β-lactamase; assay: Clavulanic acid inhibition (Ki, Morrison fit), K234R enzyme; type: biochemical; conditions: ampicillin as indicator substrate, 20 min preincubation
Method: as §3

[13] = test system: TEM-1 β-lactamase K234T; set-up: method as in PMID 1910040; conditions: TEM-1 K234T versus TEM-1; cited from earlier work
[14] = biological target: T4, WT CTX-M-14 β-lactamase; assay: Steady-state kinetics of β-lactam hydrolysis, WT enzyme; type: biochemical
Method: as §1

[15] = test system: CO/N=C(\C(=O)N[C@@H]1C(=O)N2C(C(=O)O)=C(COC(C)=O)CS[C@H]12)c1csc(N)n1; assay: as above; type: biochemical; conditions: other: WT CTX-M-14, 25 °C, pH 7.0
Method: as §1

[16] = test system: CC1(C)S[C@@H]2[C@H](NC(=O)[C@H](N)c3ccccc3)C(=O)N2[C@H]1C(=O)O; assay: as above; type: biochemical; conditions: other: WT CTX-M-14, 25 °C, pH 7.0
Method: as §1

Compound: CC1(C)S[C@@H]2[C@H](NC(=O)[C@H](N)c3ccccc3)C(=O)N2[C@H]1C(=O)O [Ampicillin, ampicillin]
- fold reduction in hydrolysis [1]: 10 fold
- Km [2]: 30000 µM
- fold decrease in kcat [2]: 2 fold
- fold increase in Km [2]: 260 fold
- Km ([2]; 25 °C, pH 7.0): 30700 µM
- kcat ([2]; 25 °C, pH 7.0): 30 ± 2 s⁻¹
- change in kcat/Km (catalytic efficiency), in words ([3]; K234R compared with WT): unchanged; also recorded: only modestly changed
- fold increase in Km ([3]; K234R compared with WT): 9 fold
- fold increase in kcat ([3]; K234R compared with WT): 5 fold
- fold increase in acylation rate ([3]; K234R compared with WT, inferred from kcat): at least 5 fold
- Km ([3]; K234R): 1050 µM
- kcat ([3]; K234R): 330 ± 33 s⁻¹
- kcat ([3]; K234R, listed as ampicillin): 330 s⁻¹
- k2 (acylation rate), lower limit based on kcat ([3]; K234R, inferred from kcat): ≥ 330 s⁻¹
- k3 (deacylation rate), lower limit based on kcat ([3]; K234R, inferred from kcat): ≥ 330 s⁻¹
- Km ([4]; S130A/K234R, too high to measure): > 30000 µM

Compound: CO/N=C(\C(=O)N[C@@H]1C(=O)N2C(C(=O)O)=C(COC(C)=O)CS[C@H]12)c1csc(N)n1 [Cefotaxime, cefotaxime]
- k3 (deacylation rate) ([5]; calculated from k2 and kcat): 190 s^−1 and 190 ± 35 ^b s^−1
- Kd ([5]; fit of kobs from single turnover, read-out: KD (Ks, dissociation constant)): 74 ± 12 µM
- k2 (acylation rate) ([5]; single turnover, 5 μM cefotaxime, 25 °C): 210 s⁻¹ and 210 ± 12 s⁻¹
- Kd ([6]; fit of kobs from single turnover): 42 ± 8 µM
- k2 (acylation rate) ([6]; single turnover, 2.5 μM cefotaxime, 25 °C): 0.14 s⁻¹ and 0.14 ± 0.01 s⁻¹
- hydrolysis, fold faster than TEM-1 [7]: ~1,000 fold
- fold decrease in kcat [2]: 1,000 fold
- fold increase in Km [2]: 4 fold
- Km ([2]; 25 °C, pH 7.0): 260 ± 13 µM
- kcat ([2]; 25 °C, pH 7.0): 0.1 ± 0.003 s⁻¹
- fold decrease in Km ([3]; K234R compared with WT): 6 fold
- fold decrease in kcat ([3]; K234R compared with WT): 500 fold
- fold decrease in kcat/Km ([3]; K234R compared with WT): 80 fold
- Km ([3]; K234R): 11 ± 4 µM
- kcat ([3]; K234R): 0.2 ± 0.01 s⁻¹
- kcat ([3]; K234R, listed as cefotaxime): 0.2 s⁻¹
- k3 (deacylation rate), lower limit based on kcat ([3]; K234R, inferred from kcat): ≥ 0.2 s⁻¹
- fold reduction in kcat ([4]; S130A/K234R compared with K234R): 400 fold
- fold reduction in kcat ([4]; S130A/K234R compared with S130A): 200 fold
- Km ([4]; S130A/K234R, 25 °C, pH 7.0): 120 ± 17 µM
- kcat ([4]; S130A/K234R, 25 °C, pH 7.0): 0.0005 ± 0.0001 s⁻¹
- kcat, fold lower than for ampicillin hydrolysis [8]: ~2,000 fold

Compound: O=C(O)[C@H]1/C(=C/CO)O[C@@H]2CC(=O)N21 [Clav acid, Clavulanic acid]
- Ki [9]: 30 µM and 31 µM
- Ki, fold above WT ([10]; S130A/K234R compared with WT): 3,500 fold
- Ki ([10]; S130A/K234R, ampicillin as indicator substrate, 20 min preincubation): 270 ± 20 µM
- Ki [11]: 0.08 ± 0.001 µM
- Ki [12]: 0.39 ± 0.02 µM

Compound: CC1(C)S[C@@H]2[C@H](NC(=O)Cc3ccccc3)C(=O)N2[C@H]1C(=O)O [benzylpenicillin]
- fold increase in Km [13]: 50 fold
- fold reduction in kcat [13]: ~50 fold

Compound: COCC1=C(C(=O)O)N2C(=O)[C@@H](NC(=O)/C(=N\OC)c3csc(N)n3)[C@H]2SC1 [cefpodoxime]
- fold decrease in Km ([3]; K234R compared with WT): 9 fold
- fold decrease in kcat ([3]; K234R compared with WT): 430 fold
- fold decrease in kcat/Km ([3]; K234R compared with WT): 50 fold

Compound: CO/N=C(\C(=O)N[C@@H]1C(=O)N2C(C(=O)O)=CCS[C@H]12)c1csc(N)n1 [ceftizoxime]
- fold decrease in Km ([3]; K234R compared with WT): 8 fold
- fold decrease in kcat ([3]; K234R compared with WT): 320 fold
- fold decrease in kcat/Km ([3]; K234R compared with WT): 40 fold
- Km, fold higher than for cefotaxime [14]: 45 fold
- kcat, fold higher than for cefotaxime [14]: 2 fold
- kcat/Km, fold lower than for cefotaxime [14]: 20 fold

Compound: CO/N=C(\C(=O)N[C@@H]1C(=O)N2C(C(=O)O)=C(CSc3nc(=O)c(=O)[nH]n3C)CS[C@H]12)c1csc(N)n1 [ceftriaxone]
- fold decrease in Km ([3]; K234R compared with WT): 2 fold
- fold decrease in kcat ([3]; K234R compared with WT): 400 fold
- fold decrease in kcat/Km ([3]; K234R compared with WT): 170 fold

Compound: CC(=O)OCC1=C(C(=O)O)N2C(=O)[C@@H](NC(=O)Cc3cccs3)[C@H]2SC1 [cephalothin]
- fold decrease in Km ([3]; K234R compared with WT): 20 fold
- fold decrease in kcat ([3]; K234R compared with WT): 100 fold
- fold decrease in kcat/Km ([3]; K234R compared with WT): 6 fold
- kcat, fold higher than for cefotaxime [14]: ~7 fold
- kcat/Km, fold higher than for cefotaxime [14]: ~3 fold

Compound: WT CTX-M-14 β-lactamase (Escherichia coli)
- Km [15]: 66 ± 3 µM
- kcat [15]: 100 ± 1 s⁻¹
- kcat/Km [15]: 1.5e+06 ± 100000 M⁻¹ s⁻¹
- Km [16]: 120 ± 10 µM
- kcat [16]: 67 ± 3 s⁻¹
- kcat/Km [16]: 560000 ± 20000 M⁻¹ s⁻¹
